We go through four compounds from patent publication US5972598A, “Methods for preventing multidrug resistance in cancer cells” (priority 1995, dated 1999).

The test system of data set [1] is MDR1. Nature of the data set: Inhibition of cytotoxic drug (Ara-C) induced MDR1 expression by protein kinase inhibitors. The format is cell-based, human. Conditions: for inhibition of Ara-C induced MDR1 expression: 5 μM.
Data set [2] relates to H9 cells. Nature of the data set: Cellular toxicity in H9 cells. Conditions: concentrations higher than 5 μM.
The subject of data set [3] is protein kinases. Conditions: 10-fold weaker than H7; Pelosin et al., 1990; cited from earlier work.
In data set [4] the test system is MDR1. The format is cell-based, human. As to the method:
(§1) Neomycin sulfate (Calbiochem) was dissolved in sterile, deionized water.
(§2) P-glycoprotein expression on the cell surface was analyzed using a P-glycoprotein-specific mouse IgG2a monoclonal antibody (mAB) UIC2 (Mechetner and Roninson, 1992, Proc. Natl. Acad. Sci. USA 89:5824-5828). Mouse IgG2a isotype control antibody was obtained from Sigma. For staining of PBL with UIC2 mAB or isotype control, 10^6 cells were stained at 4° C. with 10 μg of the antibody for 30 minutes and, after two washes, stained for 30 minutes with 10 μg of FITC-conjugated goat anti-mouse IgG2a antibody (Fisher Scientific, Fairlawn, N.J.), diluted 1:2 with PBS plus 2% FCS. Cells were then washed twice with ice-cold PBS plus 2% FCS, stained with PI and kept on ice until analysis. Essentially the same protocol was used for staining of other cell types except that 2 μg of the secondary antibody were used per 10^6 cells. In some experiments, phycoerythrine (PE)-conjugated goat anti-mouse IgG2a was used as the secondary antibody; no PI was added in such cases. Flow cytometric analysis was conducted on a Coulter Epics 753 Flow Cytometer.
(§3) RNA was extracted from approximately 10^6 cells by a small-scale sodium dodecyl sulfate extraction procedure (Peppel and Baglioni, 1990, BioTechniques 9:711-713). In the alternative, RNA was isolated from cells using the TRIzol method (commercially available from GIBCO/BRL). cDNA synthesis and polymerase chain reaction (PCR) amplification of MDR1 and β2 -microglobulin cDNA sequences were carried out essentially as described (Noonan et al., 1990, Proc. Natl. Acad. Sci. USA 87:7160-7164; Noonan and Roninson, 1991, pp. 319-333 In Roninson (Ed.), Molecular and Cellular Biology of Multidrug Resistance in Tumor Cells, Plenum Press, New York). Briefly, cDNA was prepared using the method of Krug and Berger (1987, Meth. Enzymol. 152: 316-324), with the modification that random hexamers were substituted for oligo(dT) as primers for cDNA synthesis. (Commercially-available kits (for example, from GIBCO/BRL, Gaithersburg, Md.) can be advantageously modified for making cDNA using random hexamers.) PCR is then performed using the following primers: […]
(§4) (where β2 M represents β2 microglobulin). PCR was performed for β2 M experiments under a regime consisting of 1 cycle comprising denaturation at 94° C. for 3 minutes, primer annealing at 60° C. for 30 seconds, and primer extension at 72° C. for 1 minute, followed by 19 cycles comprising denaturation at 94° C. for 30 seconds, primer annealing at 60° C. for 30 seconds, and primer extension at 72° C. for 1 minute, followed by a final cycle comprising denaturation at 94° C. for 30 seconds, primer annealing at 60° C. for 30 seconds, and primer extension at 72° C. for 5 minutes. MDR1 cDNA sequences were amplified using the identical protocol as for β2 M, but extending the amplification from 19 cycles to 25 cycles. In addition, the cDNA-PCR amplification protocol contained the following modifications: (i) Taq DNA polymerase was added to the PCR mixtures after initial heating of the samples to 94° C. (ii) The yield of the β2 -microglobulin-specific band, obtained after 22-28 cycles of PCR, was used as the primary criterion for equalizing the starting amounts of the cDNA templates in different preparations, in order to account for differential RNA degradation in cells subjected to different types of treatment. […] PCR products were detected by autoradiography.
MDR1 gene expression was evaluated by a functional assay for Rh123

Data set [5] has as its target P-glycoprotein (Homo sapiens, UniProt P08183). Nature of the data set: Rh123 accumulation assay of P-glycoprotein activity in human PBL. The settings on record: human PBL. As to the method:
KG1 cell line was maintained in Iscove's modified Dulbecco medium with 20% fetal calf serum (FCS) and 2 mM L-glutamine, 100 units/ml penicillin and 100 μg/ml streptomycin (GIBCO Laboratories, Grand Island, N.Y.).
A functional assay was used to detect changes in P-glycoprotein activity in human PBL treated with different agents that induce lymphoid differentiation or activation, based on flow cytometric analysis of cellular accumulation of Rh123, which is a P-glycoprotein-transported fluorescent mitochondrial dye. In this assay, cells expressing little or no P-glycoprotein stain brightly with Rh123, whereas cells with higher levels of P-glycoprotein activity appear Rh123-dull. […] Since the best-known cellular effect of TPA is the stimulation of PKC, it was also tested whether DOG, a cell-permeable diacylglycerol and a physiological stimulant of PKC, would have an effect on Rh123 accumulation in PBL.

The subject of data set [6] is P-glycoprotein. Nature of the data set: UIC2 antibody staining of P-glycoprotein on the cell surface. The settings on record: human PBL. The format is cell-based. As to the method: as §2
To determine if the observed effect of PKC stimulants on P-glycoprotein activity could be due to an increase in P-glycoprotein expression, untreated and TPA-treated PBL were stained by indirect immunofluorescence labeling with a monoclonal antibody UIC2 that recognized an extracellular epitope of P-glycoprotein encoded by the human MDR1 gene. […]

For data set [7], the system named is MDR1. As to the kind of experiment: cDNA-PCR / flow cytometric analysis of MDR1 induction by PKC agonists. The format is cell-based, human. The protocol: as §1, §2, §3, §4
Data set [8] relates to MDR1. Also on record: key to the marks not given beside the values.
Data set [9] concerns hormone-refractory prostate cancer. The settings on record: continuous infusion, peak of 300 μg/ml at end of 14 days; cited from earlier work.

“Also recorded” adds a separate entry of the source. Like-named read-outs stand apart in the source and are kept apart here.

Chain of P-glycoprotein (Homo sapiens, UniProt P08183) (P08183 whole entry): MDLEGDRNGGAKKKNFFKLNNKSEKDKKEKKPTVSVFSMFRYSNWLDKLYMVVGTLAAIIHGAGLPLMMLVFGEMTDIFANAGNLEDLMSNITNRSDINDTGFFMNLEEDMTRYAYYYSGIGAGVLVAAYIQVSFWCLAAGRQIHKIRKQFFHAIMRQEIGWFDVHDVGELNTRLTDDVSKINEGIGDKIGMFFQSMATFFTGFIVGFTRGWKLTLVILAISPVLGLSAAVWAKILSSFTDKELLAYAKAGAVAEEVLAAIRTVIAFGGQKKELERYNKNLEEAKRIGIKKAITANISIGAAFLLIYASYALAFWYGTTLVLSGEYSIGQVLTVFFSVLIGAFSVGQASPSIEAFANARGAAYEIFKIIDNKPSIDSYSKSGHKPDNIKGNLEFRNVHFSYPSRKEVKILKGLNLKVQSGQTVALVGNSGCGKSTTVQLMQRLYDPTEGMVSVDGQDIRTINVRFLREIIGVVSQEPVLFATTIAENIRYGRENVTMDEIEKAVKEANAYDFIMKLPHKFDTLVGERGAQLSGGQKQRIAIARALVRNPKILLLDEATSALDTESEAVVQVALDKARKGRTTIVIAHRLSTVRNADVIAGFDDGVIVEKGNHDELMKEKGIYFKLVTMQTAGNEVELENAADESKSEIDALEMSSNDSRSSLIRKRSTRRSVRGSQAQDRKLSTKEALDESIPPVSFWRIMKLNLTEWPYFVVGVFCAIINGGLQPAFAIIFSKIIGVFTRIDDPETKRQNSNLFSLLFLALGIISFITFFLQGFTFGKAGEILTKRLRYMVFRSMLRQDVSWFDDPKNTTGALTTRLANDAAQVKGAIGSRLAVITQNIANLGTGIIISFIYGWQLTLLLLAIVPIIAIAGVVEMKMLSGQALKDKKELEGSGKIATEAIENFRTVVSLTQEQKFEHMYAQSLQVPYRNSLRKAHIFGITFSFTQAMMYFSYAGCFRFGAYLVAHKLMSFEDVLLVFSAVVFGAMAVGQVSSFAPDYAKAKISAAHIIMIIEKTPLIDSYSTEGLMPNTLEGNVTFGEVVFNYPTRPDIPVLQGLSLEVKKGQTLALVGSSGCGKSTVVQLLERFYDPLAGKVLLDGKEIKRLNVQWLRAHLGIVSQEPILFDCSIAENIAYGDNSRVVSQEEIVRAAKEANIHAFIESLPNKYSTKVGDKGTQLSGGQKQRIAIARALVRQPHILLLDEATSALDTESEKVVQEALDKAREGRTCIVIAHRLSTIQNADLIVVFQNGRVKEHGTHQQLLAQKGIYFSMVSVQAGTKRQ

As to `CCCCCCCCCCCCC/C=C/[C@H](O)[C@@H](N)CO` (relative stereo) [D,L-threo-sphingosine], the “inhibition of Ara-C induced MDR1 expression” value in [1] is listed as “little or no capacity to inhibit Ara-C induced MDR1 expression; also recorded: ineffective in inhibiting Ara-C induced MDR1 expression”; in data set [1] (H9 cells, 25 μM Ara-C 10 h) it was “-”. The cellular toxicity result in data set [2] is “higher concentrations induced cellular toxicity”.

Consider `CC1CN(S(=O)(=O)c2cccc3cnccc23)CCN1` (stereo not drawn) [IsoH7], for which the “inhibition of drug-induced MDR1 expression” value in [1] (IsoH7) is reported as “No significant inhibition”. Moreover, the “effect on protein kinases relative to H7” value in [3] is recorded as 10 fold.

Take `CCCCCCCCCCCCCC(=O)O[C@@H]1[C@@H](C)[C@@]2(O)[C@@H](C=C(CO)C[C@]3(O)C(=O)C(C)=C[C@@H]23)[C@@H]2C(C)(C)[C@]12OC(C)=O` [TPA, 12-o-tetradecanoylphorbol-13-acetate]: the “MDR1 expression, TPA-treated” value is recorded as “-” in data set [4]; “++” in [4] (0.001 ug/mL); “++” in data set [4] (0.01 ug/mL); “+++” in data set [4] (0.1 ug/mL); “++” in [4] (EJ (bladder carcinoma), untreated +, assay F); “-” in data set [4] (HT 1080 (fibrosarcoma), untreated -, assays F, R). The “MDR1 expression, TPA-treated” value in data set [4] (MCF-7 (breast carcinoma), untreated -, assay R) is “+”; in data set [4] (Molt-4 (T-cell leukemia), untreated -, assay F), “-”; in data set [4] (THP-1, untreated -, assay F) it was “-”; in [8], “++”; in data set [8] (mouse FL4 (thymoma), untreated ++, assay F), “+++”. In addition, in [5], the “effect on P-glycoprotein activity (Rh123 accumulation)” value is “significant increase in the number of Rh123-dull cells”. The “P-glycoprotein on the cell surface” value in data set [6] is “markedly increased the levels of P-glycoprotein on the cell surface”. In addition, the “increase of MDR1 expression” value in [7] (EJ bladder carcinoma cells) and in data set [7] (MCF-7 breast carcinoma cells) was “increase of MDR1 expression” each time. Besides, the “induction of MDR1 mRNA and P-glycoprotein” value in data set [7] (H9 cells) was “clear-cut induction of MDR1 mRNA and P-glycoprotein”; in data set [7] (K562 cells), “clear-cut induction of MDR1 mRNA and P-glycoprotein”. Also, in data set [7] (H9 cells, TPA), the “time after addition at which MDR1 mRNA became detectable” value was found to be 2 h. In data set [7] (H9 cells, TPA), the “time until which MDR1 mRNA continued to increase” value was at least 5 h. The “MDR1 expression induced by TPA alone” value in data set [7] (H-9 cells, 10 ng/ml overnight) is listed as “efficiently induced readily detectable MDR1 expression”. The “MDR1 mRNA levels” value in data set [7] (human PBL, PCR) was “corresponding increase in MDR1 mRNA levels”.

With `Cc1ccc(C(=O)Nc2ccc(S(=O)(=O)O)c3cc(S(=O)(=O)O)cc(S(=O)(=O)O)c23)cc1NC(=O)c1cccc(NC(=O)Nc2cccc(C(=O)Nc3cc(C(=O)Nc4ccc(S(=O)(=O)O)c5cc(S(=O)(=O)O)cc(S(=O)(=O)O)c45)ccc3C)c2)c1` [suramin], the “activity in hormone-refractory prostate cancer” value in [9] is on record as “shown activity in hormone-refractory prostate cancer”.
